Where two headings read alike, the source gives them in different places.
Experiments:
[1] = tested on: MOLM14 cells; test: Proliferation assay (spheroid confluence, 8 days), MOLM14; type: cell-based, human; conditions: read-out: spheroid assay_MOLM14 IC50
Protocol: (§1) The anti-proliferative effect of menin/MLL protein/protein interaction inhibitor test compounds was assessed in human leukemia cell lines. The cell line MOLM14 harbors a MLL translocation and expresses the MLL fusion protein MLL-AF9, respectively, as well as the wildtype protein from the second allele. OCI-AML3 cells that carry the NPM1c gene mutation were also tested. […] KO-52 was used as a control cell line containing two MLL (KMT2A) wildtype alleles in order to exclude compounds that display general cytotoxic effects.
(§2) MOLM14 cells were cultured in RPMI-1640 (Sigma Aldrich) supplemented with 10% heat-inactivated fetal bovine serum (HyClone), 2 mM L-glutamine (Sigma Aldrich) and 50 μg/ml gentamycin (Gibco). KO-52 and OCI-AML3 cell lines were propagated in alpha-MEM (Sigma Aldrich) supplemented with 20% heat-inactivated fetal bovine serum (HyClone), 2 mM L-glutamine (Sigma Aldrich) and 50 μg/ml gentamycin (Gibco).
(§3) In order to assess the anti-proliferative effects, 200 MOLM14 cells, 200 OCI-AML3 cells or 300 KO-52 cells were seeded in 200 μl media per well in 96-well round bottom, ultra-low attachment plates (Costar, catalogue number 7007). Cell seeding numbers were chosen based on growth curves to ensure linear growth throughout the experiment. Test compounds were added at different concentrations and the DMSO content was normalized to 0.3%. Cells were incubated for 8 days at 37° C. and 5% CO2. Spheroid like growth was measured in real-time by live-cell imaging (IncuCyteZOOM, Essenbio, 4×objective) acquiring images at day 8. Confluence (%) as a measure of spheroid size was determined using an integrated analysis tool.
(§4) In order to determine the effect of the test compounds over time, the confluence in each well as a measure of spheroid size, was calculated. Confluence of the highest dose of a reference compound was used as baseline for the LC (Low control) and the confluence of DMSO treated cells was used as 0% cytotoxicity (High Control, HC).
(§5) Absolute IC50 values were calculated as percent change in confluence as follows:
(§6) LC=Low Control: cells treated with e.g. 1 μM of the cytotoxic agent staurosporin, or e.g. cells treated with a high concentration of an alternative reference compound
(§7) HC=High Control: Mean confluence (%) (DMSO treated cells)
(§8) % Effect=100−(100*(Sample−LC)/(HC−LC))
(§9) GraphPad Prism (version 7.00) was used to calculate the IC50. Dose-response equation was used for the plot of % Effect vs Log10 compound concentration with a variable slope and fixing the maximum to 100% and the minimum to 0%.

[2] = tested on: KO-52 cells; test: Proliferation assay (spheroid confluence, 8 days), KO-52 control cell line; type: cell-based, human; conditions: read-out: spheroid assay_KO-52 IC50
Protocol: as §1, §2, §3, §4, §5, §6, §7, §8, §9

IC50 ([1]; MOLM14) [µM] | IC50 ([1]; Homo sapiens, MOLM-14, MOLM14) [µM] | Compound | IC50 [2] [µM] | IC50 ([2]; Homo sapiens) [µM]
0.035 | – | CC(=O)N1CCC(CN2CC[C@@H](Cc3cn(-c4ccc(F)cc4C(=O)N4CCC5CC54)c4cncc(C)c34)C2)CC1 (single isomer, unassigned) [Compound 311b] | > 15 | –
– | 0.035 | COC(=O)[C@H]1CC[C@@H](CN2CC[C@@H](Cc3cn(-c4ccc(F)cc4C(=O)N(C)C(C)C)c4cncc(C)c34)C2)CC1 [Compound 153] | – | 7.9
– | 0.033 | CC(=O)N1CCC(CN2CC[C@@H](Cc3cn(-c4ccc(F)cc4C(=O)N4CC5CC4CO5)c4cncc(C)c34)C2)CC1 (stereo partly drawn) [Compound 312] | – | > 15
– | 0.012 | CC(=O)N1CCC(CN2CC[C@@H](Cc3cn(-c4ccc(F)cc4C(=O)N4[C@@H](C)CC[C@@H]4C)c4cncc(C)c34)C2)CC1 [Compound 316] | – | 8.9
– | 0.012 | Cc1cncc2c1c(CC1CN(CC3CCOCC3)C1)cn2-c1ccc(F)cc1C(=O)N1CCC[C@H]1C [Compound 279] | – | 5.1
– | 0.088 | Cc1cncc2c1c(CC1CN(CC3CCOCC3)C1)cn2-c1ccc(F)cc1C(=O)N1CCCC1CO (stereo not drawn) [Compound 268] | – | > 15
– | 0.004 | CNC(=O)[C@H]1CC[C@H](CN2CC(Cc3cn(-c4ccc(F)cc4C(=O)N(C)C(C)C)c4cncc(C)c34)C2)CC1 [Compound 74] | – | 5.2
– | 0.007 | CNC(=O)N1CCC(CN2CCC(Cc3cn(-c4ccc(F)cc4C(=O)N(C)C(C)C)c4cncc(C)c34)CC2)CC1 [Compound 202] | – | 3.4
– | 0.023 | Cc1cncc2c1c(C[C@@H]1CCN(CC3CCC(O)CC3)C1)cn2-c1ccc(F)cc1C(=O)N(C)C(C)C (single isomer, unassigned) [Compound 205a] | 7 | –
– | 0.169 | CC(=O)NC1CCC(N2CC[C@H](Cc3cn(-c4ccc(F)cc4C(=O)N(C)C(C)C)c4cncc(C)c34)C2)CC1 (stereo partly drawn) [Compound 211] | – | > 15
– | 0.002 | CC(=O)N1CCN(CCCC(C(C)C)N2CCC(Cc3cn(-c4ccc(F)cc4C(=O)N(C)C(C)C)c4cncc(C)c34)C2)CC1 (single isomer, unassigned) [Compound 9a] | – | 0.6
– | < 0.0018 | CC(=O)N1C[C@@H]2CN([C@H]3C[C@@H](C(C(C)C)N4CC[C@H](Cc5cn(-c6ccc(F)cc6C(=O)N(C)C(C)C)c6cncc(C)c56)C4)C3)C[C@H]2C1 (mixture of isomers) [Compound 21] | – | 2
– | 0.126 | Cc1cncc2c1c(C[C@@H]1CCN(C[C@H]3CCCCN3)C1)cn2-c1ccc(F)cc1C(=O)N(C)C(C)C [Compound 199] | – | 11.8
– | 0.009 | CNC(=O)c1cncc(N2CCC(N3CC(Cc4cn(-c5ccc(F)cc5C(=O)N(C)C(C)C)c5cncc(C)c45)C3)CC2)n1 [Compound 75] | – | 2
– | 0.046 | Cc1cncc2c1c(C[C@@H]1CCN(C[C@@H]3CCOC3)C1)cn2-c1ccc(F)cc1C(=O)N(C)C(C)C (single isomer, unassigned) [Compound 190b] | – | 4.9
– | 0.305 | Cc1cncc2c1c(C[C@@H]1CCN(CC3CCNC(=O)C3)C1)cn2-c1ccc(F)cc1C(=O)N(C)C(C)C (mixture of isomers) [Compound 212] | – | > 15
– | 0.011 | Cc1cncc2c1c(CC1CN(CC3CCC(O)CC3)C1)cn2-c1ccc(F)cc1C(=O)N(C)C(C)C (stereo not drawn) [Compound 144] | – | 6.5
– | 0.012 | CON(C)C(=O)N1CCC(CN2CCC(Cc3cn(-c4ccc(F)cc4C(=O)N(C)C(C)C)c4cncc(C)c34)CC2)CC1 [Compound 203] | – | 2.9
– | 0.003 | COCCN(C)CCC[C@@H](C(C)C)N1CC[C@H](Cc2cn(-c3ccc(F)cc3C(=O)N(C)C(C)C)c3cncc(Cl)c23)C1 (single isomer, unassigned) [Compound 4b] | – | 0.5
0.025 | – | Cc1cncc2c1c(C[C@@H]1CCN(CC3CCC(O)CC3)C1)cn2-c1ccc(F)cc1C(=O)N(C)C(C)C (single isomer, unassigned) [Compound 205b] | 3.2 | –
– | 0.003 | CC(=O)N1C[C@@H]2CN(CCC[C@H](C(C)C)N3CC[C@H](Cc4cn(-c5ccc(F)cc5C(=O)N(C)C(C)C)c5cncc(Cl)c45)C3)C[C@H]2C1 (single isomer, unassigned) [Compound 19a] | – | > 15

IC50 ([1]; MOLM14) [µM] | IC50 ([1]; Homo sapiens, MOLM-14, MOLM14) [µM] | Compound | IC50 [2] [µM] | IC50 ([2]; Homo sapiens) [µM]
– | 0.01 | CC(=O)N1CCC(CN2CC[C@@H](Cc3cn(-c4ccc(F)cc4C(=O)N4CCC[C@H]4C)c4cncc(C)c34)C2)CC1 [Compound 315] | – | 2.4
– | 0.09 | CN=S(=O)(c1cc(F)ccc1-n1cc(CC2CCN(CC3CCOCC3)C2)c2c(C)cncc21)C(C)C (stereo not drawn) [Compound 77] | – | 5.8
– | 0.013 | CC(=O)N1CCC([C@H](CO)N2CC[C@@H](Cc3cn(-c4ccc(F)cc4C(=O)N(C)C(C)C)c4cncc(C)c34)C2)CC1 (single isomer, unassigned) [Compound 206a] | – | 6.6
– | 0.013 | CC(=O)N1CCN(CCCC(C(C)C)N2CC[C@H](Cc3cn(-c4ccc(F)cc4C(=O)N(C)C(C)C)c4cncc(C)c34)C2)CC1 (mixture of isomers) [Compound 9] | – | 5.6
– | 0.146 | CN=S(=O)(c1cc(F)ccc1-n1cc(CC2CCN(CC3CCN(C(C)=O)CC3)C2)c2c(C)cncc21)C(C)C (stereo not drawn) [Compound 128] | – | 7.9
0.679 | – | CC(=O)NC1CCC(N2CC[C@@H](Cc3cn(-c4ccc(F)cc4C(=O)N(C)C(C)C)c4cncc(C)c34)C2)CC1 (stereo partly drawn) [Compound 200] | – | > 15
– | 0.017 | CC(=O)N1CCC(CN2CC[C@@H](Cc3cn(-c4ccc(F)cc4C(=O)N4CCC5CC54)c4cncc(C)c34)C2)CC1 (stereo partly drawn) [Compound 311] | – | 5.2
– | 0.007 | Cc1cncc2c1c(CC1CN(C[C@H]3CCOC3)C1)cn2-c1ccc(F)cc1C(=O)N(C)C(C)C (single isomer, unassigned) [Compound 191a] | – | 4.6
– | 0.018 | CC(=O)N1CCC(CN2CC[C@@H](Cc3cn(-c4ccc(F)cc4C(=O)N4CCC5CC54)c4cncc(C)c34)C2)CC1 (single isomer, unassigned) [Compound 311a] | – | 7.7
– | 0.04 | Cc1cncc2c1c(C[C@@H]1CCN(C[C@H]3CCOC3)C1)cn2-c1ccc(F)cc1C(=O)N(C)C(C)C (single isomer, unassigned) [Compound 190a] | – | 10
– | 0.039 | Cc1cncc2c1c(C[C@@H]1CCN([C@H](C)C3CCOCC3)C1)cn2-c1ccc(F)cc1[S@](=N)(=O)C(C)C (single isomer, unassigned) [Compound 180a] | – | 7.2
– | 0.015 | Cc1cncc2c1c(CC1CN(CC3CCOCC3)C1)cn2-c1ccc(F)cc1C(=O)N1CCC2CC21 (stereo not drawn) [Compound 262] | – | 2.9
– | 0.275 | Cc1cncc2c1c(CC1CN(CC3CCNC(=O)CC3)C1)cn2-c1ccc(F)cc1C(=O)N(C)C(C)C (stereo not drawn) [Compound 104] | – | > 15
– | 0.01 | Cc1cncc2c1c(CC1CN(CC3CCOCC3)C1)cn2-c1ccc(F)cc1C(=O)N(CCO)C(C)C [Compound 281] | – | 4.2
– | 0.139 | CC(=O)N1CCC(CN2CC[C@@H](Cc3cn(-c4ccc(F)cc4C(=O)N4CCC[C@@H]4C)c4cncc(C)c34)C2)CC1 [Compound 319] | – | > 15
– | 0.005 | COCCN(C)CCCC(C(C)C)N1CC[C@H](Cc2cn(-c3ccc(F)cc3C(=O)N(C)C(C)C)c3cncc(Cl)c23)C1 (stereo partly drawn) [Compound 4] | – | 3
– | 0.019 | CC(=O)N1CCC(CN2CC[C@@H](Cc3cn(-c4ccc(F)cc4C(=O)N(CC(C)O)C(C)C)c4cncc(C)c34)C2)CC1 (stereo partly drawn) [Compound 320] | – | 6.9
– | 0.111 | Cc1cncc2c1c(C[C@@H]1CCN(CC3CCOCC3)C1)cn2-c1ccc(F)cc1S(=N)(=O)C(C)C (mixture of isomers) [Compound 78] | – | 8.4
– | 0.004 | COCCN(C)CCCC(C(C)C)N1CC[C@@H](Cc2cn(-c3ccc(F)cc3C(=O)N(C)C(C)C)c3cncc(Cl)c23)C1 (stereo partly drawn) [Compound 3] | – | 1.1
– | 0.019 | Cc1cncc2c1c(C[C@@H]1CCN(CC3CCC(O)CC3)C1)cn2-c1ccc(F)cc1C(=O)N(C)C(C)C (stereo partly drawn) [Compound 205] | – | 2.5

Compound | IC50 ([1]; MOLM14) [µM] | IC50 ([1]; Homo sapiens, MOLM-14, MOLM14) [µM] | IC50 [2] [µM] | IC50 ([2]; Homo sapiens) [µM]
CC(=O)N1CC2CC(C1)C2N1CC[C@@H](Cc2cn(-c3ccc(F)cc3C(=O)N(C)C(C)C)c3cncc(C)c23)C1 (stereo partly drawn) [Compound 209] | – | 0.458 | – | 12.8

Reference: US20230250096A1, “SUBSTITUTED PHENYL-1H-PYRROLO[2,3-c] PYRIDINE DERIVATIVES” (Janssen Pharmaceutica NV, priority 2021, published 2023)
